# Measured values published in patent US7291629B2, “Neurotrophin antagonist compositions” (Painceptor Pharma Corporation, priority 1996, dated 2007).
# Tested on: p75 and trkA receptors
# Test: Binding of [125I]NGF to PC12 cells in the presence and absence of BDNF
# Settings: 100 uM compound, 0.5 nM 125I-NGF
# Experimental: The ability of the compounds of Formula I to antagonize NGF interaction with the p75 and trkA receptors was determined as follows.
# NGF was labelled using the Lactoperoxidase labelling method (Sutter et al., J. Biol. Chem., 1979) and the labelled NGF was separated from radiolabelling agents and free iodide using a PD-10 Sephadex G-25 column.
# PC12 cells were grown in RPMI with 10% heat inactivated donor horse serum and 5% fetal calf serum. Cells were harvested for binding by washing off the media with calcium-magnesium free balanced salt solution (Gey's solution) and incubated in 5 ml Gey's solution at 37° C. for 15 minutes. Cells were pelleted by centrifugation and suspended in Hepes-Krebs Ringer buffer (HKR) (10 mM Hepes pH7.35, containing 125 mM NaCl, 4.8 mM KCl, 1.3 mM CaCl2, 1.2 mM MgSO4, 1.2 mM KH2PO4, 1 mg/ml BSA and 1.0 mg/ml glucose) at a concentration of 4×10^6/ml and kept on ice. (C) NGF Binding The reaction was performed in a 96 well plate. Suspended cells (150 ul, […]) were added to ^125I-NGF (final concentration of 0.5 nM) and the competing compound of Formual I in a final volume of 300 ul of HKR buffer. The plates were incubated with shaking for 2 hr at 4° C. At the end of the incubation, 100 ul aliquots of the reaction sample were added to 400 ul microcentrifuge tubes containing 200 ul of 10% glycerol in HKR buffer. The tubes were centrifuged for 1 minute at ˜5000 rpm and the tip containing the cell pellet was cut off. Radioactivity bound to the cells was determined by measuring the ^125I-NGF associated with each pellet in a gamma counter. Specific binding is calculated as the difference between the amount of ^125I-NGF bound in the absence (total) and presence (NSB) of 50 nM unlabeled NGF. TrkA binding is determined similarly except 10 nM BDNF is added to all reactions. Table 1 summarizes the values obtained from this experiment for the inhibition of binding of NGF to P75 and TrkA by compounds of Formula I.
row,Compound,% Inhibition at 100 uM [%]
1,"3-Amino-7,4-bis(ethyl-1,3-dioxo-1,2,3,4-tetrahydrobenzo[i]isoquinoline",23
2,"3-Methyl-3-(1,3-dioxo-5-nitro(1H,3H)benz[de]isoquinolyl)butyric acid methylester",17
3,"Cc1ccc(S(=O)(=O)Nc2cc(C)c(C)cc2N2C(=O)CC3C=CC=C4C=CC=CC43C2=O)cc1 (stereo not drawn) [1,3-Dioxo-2-[4,5-dimethyl-2-(4-methylphenylsulphonamido)phenyl]-1,2,3,4-tetrahydrobenzo[i]isoquinoline]",19
4,"O=C1c2cccc3cc([N+](=O)[O-])cc(c23)C(=O)N1CCc1ccccn1 [1,3-Dioxo-5-nitro-N-(pyrid-2-ylethyl)-1,2,3,4-tetrahydro[i]isoquinoline]",28
5,"O=C1c2cccc3cc([N+](=O)[O-])cc(c23)C(=O)N1CCCN1CCOCC1 [1,3-Dioxo-5-nitro-n-propylmorpholino-1,2,3,4-tetrahydrobenzo[i]isoquinoline]",11
6,"O=C1CC2C=C(Sc3ccccc3)C=C3C=CC=CC32C(=O)N1CCc1ccccn1 (stereo not drawn) [1,3-Dioxo-6-phenylmercapto-N-(pyrid-2-ylethyl)-1,2,3,4-tetrahydro-benzo[i]isoquinoline]",33
7,"O=C1c2cccc3cc([N+](=O)[O-])cc(c23)C(=O)N1CC1CCCO1 (stereo not drawn) [1,3-Dioxo-N-methyltetrahydrofurfur-2-yl-5-nitro-1,2,3,4-tetrahydro[i]isoquinoline]",18
8,Nc1ccccc1N1C(=O)c2cccc3cccc(c23)C1=O [2-(2-Aminophenyl)naphthalimide],20
9,O=C1c2cccc3cccc(c23)C(=O)N1c1ccccc1O [2-(2-Hydroxyphenyl)naphthalimide],13
10,"O=C1CC2C=CC=C3C=CC=CC32C(=O)N1c1nc2ccccc2[nH]1 (stereo not drawn) [2-(Benzimidaz-2-yl)-1,3-dioxo-1,2,3,4-tetrahydrobenzo[i]isoquinoline]",23
11,"Cc1ccc(S(=O)(=O)Nc2cc(Cl)c(Cl)cc2N2C(=O)c3cccc4cccc(c34)C2=O)cc1 [2-[2-(4-Methylbenzsulphonamido)-4,5-dichlorophenyl]naphthalimide]",26
12,"Cc1ccc(S(=O)(=O)Nc2ccccc2N2C(=O)c3cccc4c(N(C)C)ccc(c34)C2=O)cc1 [2-{2-(4-methylphenylsulphonamido)phenyl}-6-(N,N-dimethylamino)-naphthalimide]",29
13,"O=C(O)CCN1C(=O)c2cccc3cc([N+](=O)[O-])cc(c23)C1=O [3-Nitro-1,8-(N-propioncarboxylate)succinamidonapthalene]",25
14,CCCCN1C(=O)c2cccc3cc(N)cc(c23)C1=O [5-Amino-N-butylnaphthalimide],13
15,"O=C1c2cccc3cc(Br)cc(c23)C(=O)N1Cc1cccnc1 [5-Bromo-1,3-dioxo-N-methylpyrid-3-yl-1,2,3,4-tetrahydrobenzo[i]isoquinoline]",28
16,"CN(C)c1ccc2c3c(cccc13)C(=O)N(c1nc3ccccc3[nH]1)C2=O [6-(N,N-Dimethylamino)-2-(benzimidazol-2-yl)naphthalimide]",36
17,O=C1c2cccc3c([N+](=O)[O-])ccc(c23)C(=O)N1Cc1ccco1 [6-Nitro-2-(furfuryl)naphthalimide],17
18,O=C1c2cccc3c([N+](=O)[O-])ccc(c23)C(=O)N1CCc1ccccn1 [6-Nitro-2-(pyrid-2-ylethyl)naphthalimide],11
19,O=C1c2cccc3c([N+](=O)[O-])ccc(c23)C(=O)N1Cc1cccnc1 [6-Nitro-2-(pyrid-3-methyl)naphthalimide],23
20,O=C1c2cccc3c([N+](=O)[O-])ccc(c23)C(=O)N1CC1CCCO1 (stereo not drawn) [6-Nitro-2-(tetrahydrofuran-2-ylmethyl)naphthalimide],28
21,"CCOC(=O)CN1C(=O)c2cccc3cc([N+](=O)[O-])cc(c23)C1=O [Ethyl-5-nitro-1,3-dioxo-1H-benz[de]isoquinoline-2-3H-acetate]",16
